Read-outs that look alike come from different tables or passages of the source.
What was measured:
[1] = dissolving clioquinol: n-decane / PBS partitioning; format: physicochemical
Procedure: In order to obtain a solution of clioquinol in PBS, the following protocol was followed: 5.3 grams of clioquinol was suspended with agitation in 200 milliliter of n-decane. […] Next, the phases were allowed to separate. The lower phase ([…]) was collected and filtered to remove the residue which had formed at the phase interface upon extraction with the organic solvent. […] This number was arrived at based on two assumptions: (1) 2% of the clioquinol was dissolved in the n-decane; and (2) the partitioning coefficient is 1/1750 with PBS at 1:1 mixture of n-decane to […].

Aβ 1-40 aggregates = Aβ 1-40 aggregates (Homo sapiens, UniProt P05067); experiment: resolubilization of metal- or pH-induced Aβ aggregates on 0.2μ nylon membrane; format: biochemical; conditions: 2 μM chelator in TBS, relative to TBS alone
Procedure: Aggregates were transferred to a 0.2μ nylon membrane by filtration. The aggregates were then washed (200 μl/well) with TBS alone, TBS containing 2 μM EDTA, or TBS containing 2 μM clioquinol. The membrane was fixed, probed with the anti-Aβ monoclonal antibody 6E10, and developed for exposure to ECL-film. […] Values are expressed as a percentage of Aβ signal after washing with TBS alone.
First, the efficacy of clioquinol's ability to resolubilize Aβ aggregates, formed in vitro by the action of Cu(II) or Zn(II) upon Aβ 1-40, was examined. […] Aβ (10 ng/well in buffered saline) aggregation was induced by addition of ZnCl2 (5 μM) or acidic conditions (pH 5.5). Aggregates were transferred to a 0.2μ nylon membrane by filtration. The aggregates were then washed (200 μl/well) with TBS alone, TBS containing 2 μM EDTA or TBS with 2 μM clioquinol. The membrane was then fixed, probed with anti-Aβ monoclonal antibody 6E10 and developed for exposure to ECL-film.
Values are expressed as a % of Aβ signal remaining on the filter after washing with TBS alone.

[2] = tested on: Aβ deposits from AD-affected brain; experiment: extraction of Aβ from post-mortem AD-affected brain tissue, western blot; format: biochemical, human
Text: To test this hypothesis, the brain tissue preparation of Kuo and colleagues was replicated, but phosphate-buffered saline pH 7.4 (PBS) was substituted as the extraction buffer, achieving similar results. Highly sensitive and specific anti-Aβ monoclonal antibodies (Ida et al., (1996)) were used to assay Aβ extraction by western blot. Next, the extraction of the same material with PBS was repeated in the presence of clioquinol and determined that the presence of clioquinol increased the amount of Aβ in the soluble extract several-fold (FIGS. 1, 2, 3A, and 3B).
Next, the ability of clioquinol to extract Aβ deposits from human brain was determined. […] Fragments of prefrontal cortex from individual post-mortem samples with the histopathological diagnosis of AD were homogenized in PBS, ph 7.4, and then pelleted after centrifugation.
The pellets were then washed with agitation twice for 30 minutes, 4° C., with PBS or PBS containing clioquinol (100% =0.8 μM clioquinol). The suspension was then pelleted (10,000 g for 30 minutes) and the supernatant removed (S1) for western blot analysis using Aβ-specific antibodies.
FIGS. 3A and 3B show the western blot and accompanying densitometric analysis of resolubilization of Aβ from AD-affected brain. […] Synthetic peptide standards that were used to calibrate densitometric quantification are shown in the two right-most lanes. […]

Aβ1-40 = Aβ1-40 (Homo sapiens, UniProt P05067); experiment: Zn(II)-induced Aβ1-40 aggregation, supernatant protein by BCA assay; format: biochemical; conditions: 20 mM HEPES, pH 7.4, 30 minutes at 37° C.
Procedure: Aβ1-40 was incubated with no metal, Zn (II), Zn (II) +clioquinol, DMSO or clioquinol (120 μM) in 20 mM HEPES, […], pH 7.4. Samples were incubated for 30 minutes at 37° C. and then centrifuged at 10,000 g for 20 minutes and the protein content of the supernatant determined using the BCA assay. Clioquinol was dissolved in DMSO prior to adding 20 μM to the samples. […] DMSO had no effect on Aβ aggregation. Results are mean ±SD, n=3.

[3] = chelation of zinc; cited from earlier work
[4] = rats and mice, within one hour of ingestion; cited from earlier work
[5] = cited from earlier work; for blood brain barrier passage: in vivo
[6] = cited from earlier work
[7] = rats, oral dose of 200 mg/kg; cited from earlier work
[8] = dogs, oral dose of 200 mg/kg; cited from earlier work
[9] = monkeys, oral dose of 500 mg/kg; cited from earlier work
[10] = cited from earlier work; remark: listed apart in the source
[11] = sustained treatment; cited from earlier work
[12] = with PBS at 1:1 mixture of n-decane; cited from earlier work

Chain of Aβ 1-40 aggregates (P05067 672-711): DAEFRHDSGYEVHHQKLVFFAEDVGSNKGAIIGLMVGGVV
Chain of Aβ1-40 (P05067 672-711 limits assumed): as the sequence (P05067 672-711) above

## Oc1c(I)cc(Cl)c2cccnc12 [clioquinol, 5-chloro-7-iodo-8-hydroxyquinoline]
[1]; 5.3 grams suspended in 200 milliliter n-decane
  fraction of clioquinol dissolved in n-decane: 2%
[1]; PBS pH 7.4 after 1:1 extraction of n-decane supernatant
  concentration of clioquinol in the PBS: 800 nanamolar
Aβ 1-40 aggregates
  resolubilized Cu(II)-induced Aβ precipitate: 85%
  resolubilized Zn(II)-induced Aβ precipitate: 50%
  resolubilized pH 5.5-induced Aβ precipitate: 10%
[2]; 1.12 μM clioquinol, sequential extraction
  increase in solubilization of Aβ relative to PBS alone: 2.5 fold
[2]; compared to buffer in the absence of chelators
  proportion of Aβ re-dissolved from post-mortem AD affected brain tissue: up to 70%
Aβ1-40
  effect on Zn-induced Aβ1-40 aggregation: attenuated Zn-induced Aβ1-40 aggregation
[3]
  K(Zn): 12.5
[4]
  blood levels: 1 to 10 µM
[5]; bolus dose
  removal of a bolus dose from the brain: almost completely removed from the brain within three hours
[5]
  blood brain barrier passage: freely permeable into the brain
[5]; listed as Clioquinol
  blood brain barrier passage: crosses the blood brain barrier
[6]; in vivo
  general toxicity profile: low general toxicity profile
[6]; many mammalian species, including rat and mouse
  safety in mammalian species: appears to be safe
[7]
  plasma levels: 5 µM
[8]
  plasma levels: 10 to 30 µM
[9]
  plasma levels: 20 to 70 µM
[10]; in vivo
  excretion half life: 1 to 3 h
[10]; oral ingestion
  time to reach peak plasma levels: ≤ 30 min
[11]
  dose causing subacute myelo-optic neuritis: 10 mg/kg/day
[12]
  partitioning coefficient: 1/1750
